From PubChem BioAssay AID844 (SRMLSC, 2007)
pEC50: −log10 of the molar value. The source made the active and inactive calls. How the calls were made is not given here.

System: MRP1 cells, doxorubicin viability shift, 10 uM compound
Experiment: viability protection against doxorubicin, MRP-1 line – cell-based, doxorubicin EC50 shift, dose response (AID 844)
Conditions: for pEC50: measured here: doxorubicin EC50 with compound

Compound | fold increase in Dox EC50 | pEC50
CCOc1ccc(OCC)c(-c2c(=O)n(OCc3ccc(C(C)(C)C)cc3)c3ccccc3[n+]2[O-])c1 | 0.85 (inactive) | 5.34
O=C(c1ccco1)N1CCN=C1SCc1ccc(F)cc1 | 0.87 (inactive) | 5.33
Cc1n[nH]c(=S)n(/N=C/c2ccccn2)c1=O | 0.91 (inactive) | 5.31
CC1CCC(NC(=O)Cn2c3c(c(-c4ccccc4Cl)cc2=O)CCC3)CC1 (stereo unspecified) | 1.13 (inactive) | 5.21
CN=c1scc(C)n1/N=C/c1ccc(O)c(O)c1O | 0.92 (inactive) | 5.31
O=C(N/N=C/c1ccc(-c2ccc([N+](=O)[O-])cc2)o1)C(O)c1ccccc1 (stereo unspecified) | 0.74 (inactive) | 5.40
O=C(CCNC(=O)Cn1ccc2ccccc2c1=O)NCCc1ccccc1Cl | 1.14 (inactive) | 5.21
COc1ccc(NC(=O)c2oc3ccccc3c2NC(=O)c2ccc3c(c2)OCO3)cc1 | 0.44 (inactive) | 5.62
Clc1ccc(Cc2nnc(-c3ccccc3Br)o2)cc1 | 1.14 (inactive) | 5.21
CC(C)(C)c1cc(Br)ccc1OCC(=O)Nc1ncn[nH]1 | 0.89 (inactive) | 5.32
CC(CCc1ccccc1)NC(=O)c1nnc(Cc2ccc(Cl)cc2)o1 (stereo unspecified) | 1.13 (inactive) | 5.21
COc1ccc(CNc2nc(NCc3ccc(OC)cc3)n(S(C)(=O)=O)n2)cc1 | 1.07 (inactive) | 5.24
COc1ccc(Cl)cc1C(=O)Nc1ccc2c(c1)OCO2 | 0.66 (inactive) | 5.45
O=C(COc1ccc(Cl)cc1)NCc1nnc(SCC(=O)NCc2ccc3c(c2)OCO3)o1 | 1.06 (inactive) | 5.24
CCCCOC(=O)Nc1ccc(C(C)C)cc1 | 0.78 (inactive) | 5.38
CCc1nnc(NC(=O)c2ccc(COc3ccc(C)cc3)o2)s1 | 1.33 (inactive) | 5.14
COc1ccc(/C=C/C(=O)Nc2c(C)nn(C)c2C)cc1COc1ccc(Br)cc1 | 0.84 (inactive) | 5.35
O=C(Nc1ccn(Cc2ccccc2F)n1)c1ccc(COc2cc(Cl)ccc2Cl)o1 | 0.91 (inactive) | 5.31
O=C(Nc1nnc(COc2ccc(Cl)cc2)s1)C1CCCO1 (stereo unspecified) | 1.2 (inactive) | 5.19

Compound | fold increase in Dox EC50 | pEC50
O=C(Cn1c(=O)oc2cc(S(=O)(=O)N3CCCC3)ccc21)NCc1ccccn1 | 1.15 (inactive) | 5.21
COc1ccc(NC(=O)CC2C(=O)N(c3ccc(Cl)cc3)C(=S)N2NC(=O)c2cccc(F)c2)cc1 (stereo unspecified) | 0.67 (inactive) | 5.44
O=C1CC(N2CCC(c3nc4ccccc4o3)CC2)C(=O)N1c1cc(Cl)cc(Cl)c1 (stereo unspecified) | 1.36 (inactive) | 5.13
CC(C)(C)c1ccc(OCC(O)CSc2ncn[nH]2)cc1 (stereo unspecified) | 0.88 (inactive) | 5.32
Cc1cc2nc(-c3cccc(NC(=O)c4ccc(Br)o4)c3C)oc2cc1C | 1.03 (inactive) | 5.26
CC(=O)Nc1ccc2[nH]c(C)c(CC=C(Cl)Cl)c(=O)c2c1 | 0.72 (inactive) | 5.41
Cc1ccc(C)c(/C(O)=C2\C(=O)C(=O)N(CCCn3ccnc3)C2c2ccncc2)c1 (stereo unspecified) | 1.17 (inactive) | 5.20
COc1ccc(N2CCN(c3oc(COc4ccc(Cl)cc4)nc3C#N)CC2)cc1 | 1.64 | 5.05
O=C(Nc1cccc(Cl)c1)c1c(O)c2c(n(Cc3ccccc3)c1=O)CCCC2 | 1.14 (inactive) | 5.21
COc1cccc(C2CC(c3ccc(Cl)cc3)Nc3nc(N)nn32)c1 (stereo unspecified) | 0.88 (inactive) | 5.32
O=C(CCc1ccccc1)Nc1nnc(-c2ccc3c(c2)CCCC3)o1 | 0.25 (inactive) | 5.87
O=[N+]([O-])c1ccc(O)c(N=Cc2sc3ccccc3c2O)c1 | 0.08 (inactive) | 6.34
O=C(CN1C(=O)/C(=C/c2ccccc2)SC1=S)Nc1ncc(Cc2ccccc2)s1 | 1.49 (inactive) | 5.10
COc1ncnc2c1oc1nc(CC(C)C)c3c(c12)CCCC3 | 0.66 (inactive) | 5.45
COc1ccc(/C=N/Nc2nc(-c3ccc(Cl)cc3)cc(C(F)(F)F)n2)cc1OC | 0.35 (inactive) | 5.72
COc1ccccc1N1CCN(C(=O)COc2ccc(Cl)cc2)CC1 | 0.8 (inactive) | 5.36
CCCC(=O)NC(=S)Nc1ccc(C(C)=O)cc1 | 0.46 (inactive) | 5.61
COC(=O)N/N=C/c1ccc(-c2cc(Cl)cc(Cl)c2)o1 | 1.06 (inactive) | 5.24
CCOC(=O)c1c(NC(=O)CSc2ncn[nH]2)sc(C)c1C | 0.32 (inactive) | 5.76
